# Assay results taken from patent US8945540B2, “Compositions for enhancing the antibacterial activity of myeloperoxidase and methods of use thereof” (Exoxemis, Inc., priority 2008, dated 2015).
# Where a SMILES comes first, the peptide text is derived from it.
# Test system: Staphylococcus aureus
# Experiment: Microbicidal activity of the myeloperoxidase system (p-MPO, glucose oxidase, glucose) with amino acids in the presence of blood, CFU plate counts; synergy determination from these CFU
# Format: cell-based
# Conditions: Table 2; amino acid 5 mM (none: 0 mM); MPO 38 U/ml; GO 33.3 U/ml; blood
# Method in brief: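 Staphylococcus aureus grown 24 hours in TSB at 35° C was washed in saline and added at a final 2-3×10^7 CFU per mL. The bacteria were mixed in 1 mL reactions with porcine myeloperoxidase, glucose oxidase, amino acids, 150 mM sodium chloride and 3% venous whole blood. Adding glucose to 150 mM started killing. After catalase addition, survivors were counted by serial dilution plating on TSA at 37° C for 24 hours.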
Structure (SMILES),Average Viability CFU/ml 60 min [CFU/ml],Log 10 (CFU + 1) Survivors 60 min,Log Reduction 60 min
N[C@@H](Cc1c[nH]c2ccccc12)C(=O)O [L-Tryptophan],21150000,7.3,0.1

# Same assay, conditions: Table 3; amino acid 5 mM (none: 0 mM); MPO 38 U/ml; GO 33.3 U/ml; blood
Structure (SMILES),Average Viability CFU/ml 60 min [CFU/ml],Log 10 (CFU + 1) Survivors 60 min,Log Reduction 60 min
NC(=O)C[C@H](N)C(=O)O [L-Asparagine],5950000,6.8,0.6
O=C(O)c1cccnc1 [Nicotinic acid],4150000,6.6,0.7

# Same assay, conditions: Table 4; amino acid 5 mM (none: 0 mM); MPO 38 U/ml; GO 33.3 U/ml; blood
Structure (SMILES),Average Viability CFU/ml 60 min [CFU/ml],Log Reduction 60 min
C[C@H](N)C(=O)N[C@@H](C)C(=O)O [L-Ala-L-ala] (H-Ala-Ala-OH),238500,2.0

# Same assay, conditions: Table 5; amino acid 5 mM (none: 0 mM); MPO 38 U/ml; GO 33.3 U/ml; blood
Structure (SMILES),Average Viability CFU/ml 60 min [CFU/ml],Log Reduction 60 min
CSCC[C@@H](N)C(=O)O [D-Methionine],9400000,0.4

# Same assay, conditions: Table 7; amino acid analogue 5 mM; MPO 38 U/ml; GO 33.3 U/ml; blood
Structure (SMILES),Average Viability CFU/ml 60 min [CFU/ml],Log Reduction 60 min
CNCC(=O)OC.Cl [Sarcosine methyl ester hydrochloride],0,7.4
COC(=O)[C@@H]1CCCN1.Cl [L-Proline methyl ester hydrochloride],0,7.4
CC(CN)C(=O)O (racemic) [DL-3-Aminoisobutyric acid],0,7.4
CCOC(=O)CCN.Cl [Beta-Alanine ethyl ester hydrochloride],1195000,1.3

# Test system: Staphylococcus aureus
# Experiment: Control: microbicidal activity of the amino acid or analogue alone (no glucose, MPO, glucose oxidase) in the presence of blood
# Format: cell-based
# Conditions: Staphylococcus aureus, 1 h, read-out: Log Reduction 60 min
# Text: As a control to determine the microbicidal activity of the amino acids alone, the foregoing procedure was followed without replication, except in the absence of glucose, MPO, and glucose oxidase.
row,Structure (SMILES),log reduction at 5000 µM
1,N[C@@H](Cc1c[nH]c2ccccc12)C(=O)O [L-Tryptophan],0
2,CCOC(=O)CCN.Cl [Beta-Alanine ethyl ester hydrochloride],0

# Same assay, conditions: Staphylococcus aureus, 1 h; amino acid alone 5 mM; MPO 0; GO 0; no glucose; blood; without replication; read-out: Log Reduction 60 min
row,Structure (SMILES),log reduction at 5000 µM
1,NC(=O)C[C@H](N)C(=O)O [L-Asparagine],0
2,CSCC[C@@H](N)C(=O)O [D-Methionine],0.1
3,O=C(O)c1cccnc1 [Nicotinic acid],0

# Same assay, conditions: Staphylococcus aureus, 1 h; amino acid analogue alone 5 mM; MPO 0; GO 0; no glucose; blood; read-out: Log Reduction 60 min
row,Structure (SMILES),log reduction at 5000 µM
1,CNCC(=O)OC.Cl [Sarcosine methyl ester hydrochloride],0
2,COC(=O)[C@@H]1CCCN1.Cl [L-Proline methyl ester hydrochloride],0

# Same assay, conditions: amino acid alone 5 mM; MPO 0; GO 0; no glucose; blood; without replication
Structure (SMILES),Average Viability CFU/ml 60 min [CFU/ml],Log Reduction 60 min
C[C@H](N)C(=O)N[C@@H](C)C(=O)O [L-Ala-L-ala] (H-Ala-Ala-OH),26100000,0.0
NC(=O)C[C@H](N)C(=O)O [L-Asparagine],21800000,
CSCC[C@@H](N)C(=O)O [D-Methionine],21100000,
O=C(O)c1cccnc1 [Nicotinic acid],23200000,
N[C@@H](Cc1c[nH]c2ccccc12)C(=O)O [L-Tryptophan],21600000,

# Same assay, conditions: amino acid analogue alone 5 mM; MPO 0; GO 0; no glucose; blood
Structure (SMILES),Average Viability CFU/ml 60 min [CFU/ml],Log Reduction 60 min
CNCC(=O)OC.Cl [Sarcosine methyl ester hydrochloride],23200000,
COC(=O)[C@@H]1CCCN1.Cl [L-Proline methyl ester hydrochloride],23200000,
CC(CN)C(=O)O (racemic) [DL-3-Aminoisobutyric acid],24200000,0.0
CCOC(=O)CCN.Cl [Beta-Alanine ethyl ester hydrochloride],23100000,
